# According to a melting point compilation (Tetko et al.; mined from patent text by program, amines drawn as free bases though some values may be those of a salt):
row,Structure (SMILES),melting point
1,Cc1cc2c(s1)S(=O)(=O)N(C(C)(C)C)C2=O,80 to 81 °C
2,CCCCOc1cc(C=C[N+](=O)[O-])c([N+](=O)[O-])cc1OCc1ccccc1,152 °C
3,CC1(C)CCCN(C(=O)[C@H]2C[C@H](C(=O)O)[C@@H](c3ccccc3F)N2C(=O)CNC(=O)Nc2cccc(CC(=O)O)c2)C1 (racemic),173 °C
4,CN1C(=O)CCn2nc(-c3ccc(F)cc3)c(-c3ccncc3)c21,185 to 186 °C
5,COc1cc(C)c(NS(C)(=O)=O)cc1C(=O)NCC(Cl)CCCCl (configuration not stated),132 °C
6,FC(F)(F)c1cccc(CCc2nnc(-c3ccc4ncsc4c3)o2)c1,126 to 127 °C
7,CC(C)(C)ON=C1CCC(NC(=O)Oc2ccc([N+](=O)[O-])cc2)CC1 (configuration not stated),132 °C
8,CCn1nnnc1NCC(O)COc1cccc(CN2CCCCC2)c1 (configuration not stated),111 to 113 °C
9,COc1ccc([C@@H]2CN(C)CC[C@@H]2NC(=O)c2ccc(C)cc2)cc1OC (relative stereo),145 to 146 °C
10,CC(=O)Nc1ccc(C(=O)Nc2ccccc2NC(=O)CN)cc1,215 to 218 °C
11,CCCSc1nc(N)c2ncn(C3C=CCCC3)c2n1 (configuration not stated),108 to 113 °C
12,COc1ccc2c(cc3n2CCCO3)n1,92 to 93 °C
13,COC(=O)C(=NO)c1cnsc1,110 to 112 °C
14,Cc1nc2cc3c(cc2o1)C1(CO3)C(=O)N(C(c2ccccc2)c2ccccc2)c2ccccc21 (configuration not stated),240 to 242 °C
15,COC(=O)COc1cc(C(C)C)c(SC#N)cc1C,67 to 69 °C
16,CCOC(=O)c1cc(O)cc(C(=O)OCC)c1,106 °C
17,C#CCOc1cc(-n2nc(C(C)(C)C)oc2=O)c(F)cc1Cl,72 to 73 °C
18,COC(=O)c1ccc(C#Cc2ccc(OCC(O)CO)c(C34CC5CC(CC(C5)C3)C4)c2)cc1 (configuration not stated),202 to 203 °C
19,CC(=O)c1ccc(-c2nc(O)c(C)s2)cc1,219 to 220 °C
20,O=C(O)c1ccc(Cn2cc(C3c4ccc(C(F)(F)F)cc4C=Cc4cc(C(F)(F)F)ccc43)c(=S)[nH]c2=O)o1,159 to 162 °C
21,COc1ccc(Cl)cc1C(=O)NCCC1CCN(S(=O)(=O)NC(=S)NC(C)C)CC1,145 to 147 °C

row,Structure (SMILES),melting point
1,Nc1ccc([N+](=O)[O-])cc1S(=O)(=O)CCO,175 °C
2,O=C1C2=CSCCN2C(=O)N1c1ccc(Cl)cc1F,118 to 120 °C
3,CN1CCC(OC2c3ccccc3C(=O)N2c2ccc3ccc(Cl)nc3n2)CC1 (configuration not stated),204 °C
4,Nc1ncnc2c1nc(O)n2Cc1ccc(F)cc1,270 to 272 °C
5,CCCCc1ncc(/C=C(\Cc2ccc(C)s2)c2nnn[nH]2)n1Cc1ccccc1Cl,151 to 153 °C
6,Cc1cccc(Cl)c1NC(=O)NCc1ccc2c(c1)CN(C1CCC(=O)NC1=O)C2=O (configuration not stated),243 to 245 °C
7,CC(C)(C)OC(=O)n1cnc2c([N+](=O)[O-])cccc21,249 °C
8,O=C(c1ccccc1)c1ccc(SCCO)cc1,49 to 51 °C
9,CCC1(c2ccc(COc3ccc(CO)c(CO)c3)s2)OCCO1,78 to 80 °C
10,Cc1ccc2c(c1)C(=O)N(C)CC(=O)N2,243 to 244 °C
11,COC(=O)C(C)c1ccc2nc3ccc(Cl)cn3c(=O)c2c1 (configuration not stated),173 °C
12,COc1ccc(CS[C@@H]2C[C@@H](C(=O)N(C)OC)N(S(=O)(=O)c3ccc4ccccc4c3)C2)cc1,101 to 102 °C
13,Cc1oc(-c2ccccc2)nc1COc1ccc(Cn2cc(C(=O)O)c(C(C)C)n2)cc1,194 to 195 °C
14,CCOC(=O)c1ncc2c(c1COC)c1c(Cc3ccccc3Cl)cccc1n2S(=O)(=O)c1ccc(C)cc1,140 to 142 °C
15,Cn1nc(-c2ccc(NN=C(CCC(=O)O)c3ccc(O)cc3O)cc2)ccc1=O,138 to 141 °C
16,CC(O)C(Cc1cc(C(C)(C)C)c(O)c(C(C)(C)C)c1)C(C)O (configuration not stated),102 to 105 °C
17,CCCc1nc(SC)c(C(O)CO)n1Cc1ccc(-c2ccccc2S(=O)(=O)NC(=O)NCc2ccccc2)cc1 (configuration not stated),140 °C
18,NC(=O)CCN1CCN(C2Cc3cc(Cl)ccc3Sc3cc(F)ccc32)CC1 (configuration not stated),179 to 182 °C
19,Cc1sc(NS(=O)(=O)c2cccc(Cl)c2C)nc1CC(=O)N1CCOCC1,194 to 195 °C
20,C[C@@H]1Cc2ccsc2[C@H](C)N1CCCNS(=O)(=O)c1ccc(N)cc1 (relative stereo),134 to 138 °C
21,O=C(Nc1nc2cnccc2s1)N1CCCC1,218 to 220 °C

row,Structure (SMILES),melting point
1,Cn1nc(-c2c(Cl)cccc2Cl)nc1-c1sc(Cl)c(Cl)c1Cl,146 to 147 °C
2,COc1ccccc1OC(=O)c1cnoc1C,108 to 111 °C
3,Oc1nnc2ccccc2n1,204 to 206 °C
4,COc1ccc(C(O)COc2ccc(C(=O)O)c(O)c2)cc1C12CC3CC(CC(C3)C1)C2 (configuration not stated),178 to 179 °C
5,CCSc1ccc2oc3cc(-c4nnn[nH]4)ccc3c(=O)c2c1,261 to 262 °C
6,O=C(Nc1cccnc1S(=O)(=O)c1ccc(Cl)cc1)N[C@@H](Cc1ccc(NC(=O)c2c(Cl)cccc2Cl)cc1)C(=O)O,181 °C
7,CC(C)OC(=O)c1cc(-n2c(=O)[nH]cc(C#N)c2=O)c(F)cc1Cl,143 to 145 °C
8,CC1=Nc2ccc(-c3sc(C#N)cc3C)cc2C2(CCCC2)O1,58 to 60 °C
9,N#Cc1c2c(c3c(c1N1CCCC1)Cc1ccccc1-3)Cc1ccccc1-2,158 to 160 °C
10,CC(C)C[C@@H](C(=O)NCCCC(c1ccc(F)cc1)c1ccc(F)cc1)N1CCCCC1,52 to 70 °C
11,O=[N+]([O-])c1cc2ccc(C(Cl)(Cl)Cl)nc2c2nc(C(Cl)(Cl)Cl)ccc12,228 to 231 °C
12,O=C(c1ccccc1)c1ccc2nccnc2c1,120 °C
13,O=c1c2ccc(O)cc2nc(-c2ccc(O)cc2)n1-c1ccc(OCCCl)cc1,285 to 287 °C
14,CC(C)(C)OC(=O)Nc1cc(OC(C)(C)C)c(C#Cc2ccc(F)cc2)cc1[N+](=O)[O-],201 °C
15,Cc1ccc(C(=O)c2cc(-c3ccccc3)c(N3CCOCC3)s2)cc1,198 °C
16,O=C(O)CC1(CCCCCCCCCCC2(C(=O)O)CC2)CCC1,62 to 63.9 °C
17,COc1cc(C(=O)N(C(C)C)C(C)C)ccc1OCCCCOc1ccc(C(N)=NO)cc1,63 to 65 °C
18,CCC(=O)Nc1cccc(-c2ccnc3c(C(=O)c4cccs4)cnn23)c1,208 to 210 °C
19,COc1ccc(S(=O)(=O)N(CC(=O)O)Cc2ccccc2N)cc1,145 to 147 °C
20,CNC(Cc1ccccc1N)c1ccncc1 (configuration not stated),69 to 71 °C

# More lines, now with the values ahead:
row,melting point,Structure (SMILES)
1,107 to 110 °C,CCCNc1nc(C#N)c(C#N)nc1CC(C)C
2,84.5 °C,CC(=C1SCCCS1)c1ccc(Oc2ccc(O)cc2)cc1
3,120 to 122 °C,CC(C)(C)c1cc(C(=O)Oc2ccc(C(=O)c3cc(C(C)(C)C)c(O)c(C(C)(C)C)c3)c(O)c2)cc(C(C)(C)C)c1O
4,175 to 176 °C,Nc1c([N+](=O)[O-])cc([N+](=O)[O-])c2c1CCCC2
5,98 to 100 °C,COc1ccc(/C=C/c2ccncc2)cc1OCCCCCc1ccccc1
6,97 to 105 °C,CCOC(=O)CCN(Cc1ccc(OC)c(OC)c1)C(=O)CN(C)C(=O)Cc1ccc(NC(=O)Nc2ccccc2C)c(OC)c1
7,167 to 168 °C,COc1cc(C)nc2c(OC)cc(Br)cc12
8,193 to 197 °C,COC(=O)C(=CC(=CN(C)C)c1ccc(Cl)cc1[N+](=O)[O-])[N+](=O)[O-]
9,124 to 128 °C,Cc1cc(C)c2cccc(OCc3c(Cl)ccc(S(=O)(=O)N4CCC[C@H]4C(=O)NCCCNC(=O)COc4ccc(C=NN)cc4)c3Cl)c2n1
10,257 to 260 °C,Cc1cc(C)n(Cc2ccc3c(c2)Cc2c(-c4ccsc4)n[nH]c2-3)n1
11,228 to 231 °C,Nc1ccc(Oc2ccc(S(=O)(=O)c3ccc(Oc4ccc(N)c(O)c4)cc3)cc2)cc1O
12,181 to 183 °C,N#Cc1cc(-c2ccoc2)c2ccc(COc3cc(F)cc(-c4cccs4)c3)cc2n1
13,145 to 148 °C,CNc1nccc(-c2cc(NCCCNc3ncnc4[nH]nc(Br)c34)c3cc(OC)ccc3c2)n1
14,175 to 177 °C,CCn1ncc2c(N(C)Cc3ccccc3)c3ccccc3nc21
15,207 to 208 °C,O=c1ccsc2c3ccccc3n(-c3ccccc3[N+](=O)[O-])c12
16,65 to 77 °C,CN1CCN(c2ccc(/C=C/C(=O)CC(=O)/C=C/c3ccc4cc[nH]c4c3)cc2)CC1
17,146 to 147 °C,O=C1C=C(CBr)C(=O)C(CCC2=CC(=O)C=C(CBr)C2=O)=C1
18,72 to 74 °C,CCCCC(OC(C)=O)c1cccc(COc2cc([N+](=O)[O-])cc3cccnc23)c1 (configuration not stated)

row,melting point,Structure (SMILES)
1,205 °C,O=C(C=Cc1ccc(COc2ccccc2)cc1)NC(Cc1ccccc1)C(=O)O (configuration not stated)
2,209 to 211 °C,Cc1ccc(C(=O)O)c(-c2ccc(Cl)c(C(=O)NCC34CC5CC(CC(C5)C3)C4)c2)n1
3,139 to 141 °C,CNC(=O)c1cnn(C2(C)CCCC2)c1C#N
4,83 to 85 °C,CCOC(=O)CCCOc1ccc(C=Cc2ccncc2)cc1
5,65 to 68 °C,CC(C)(C)C(=O)c1ccc(C(Br)Br)cc1
6,91 °C,O=C(c1cc([N+](=O)[O-])cc(C(F)(F)F)c1)N1CCC1
7,210 °C,COc1ccc(-n2c(CC(=O)O)c(C(=O)O)c3cc(Oc4cccc(C(F)(F)F)c4)ccc32)cc1
8,95 °C,CCCCCCNC(=O)[C@@H]1CCC(=O)N1
9,136 to 138 °C,COc1ccc2c(c1)NC(=O)C(N=[N+]=[N-])CC2 (configuration not stated)
10,143 to 145 °C,COc1ccc(N(C=C(C#N)C#N)N=C(C#N)C#N)cc1
11,95 to 97 °C,CNc1nc(-c2cccc(CCc3ccccc3)c2)c2cc(OC)c(OC)cc2n1
12,186 to 188 °C,CCc1cccc(CC)c1C(=O)Nc1nnc(C(C)(CC)CC)s1
13,119 to 120 °C,CCC(CC)c1nnc(NC)n(N)c1=O
14,139 to 140 °C,O=C1C(O)OCN1c1ccc(Cl)c(Br)c1 (configuration not stated)
15,162 to 164 °C,c1ccc(C2CC(n3cncn3)c3ccccc3N2)cc1 (configuration not stated)
16,194 to 196 °C,COc1cc(-n2ccc(C(F)(F)F)cc2=O)c(F)cc1C#N
17,280 to 282 °C,O=C1NC(=S)SC1=Cc1ccc2c(c1)N(CCc1cccc(Cl)c1)C(=O)CO2
